This is an account of results in PubChem BioAssay (NCI).

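A five-concentration, 48-hour dose response in 96-well plates underlies each endpoint, interpolated linearly between surrounding concentrations. GI50 is the concentration that inhibits growth by half. The concentration for full growth arrest is given as TGI.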

What all share (experiment): NCI anticancer screen, dose series, 48 h
The test system of test [1] is A549 NSCLC.
Test [2] relates to HT29 colon.
For test [3], the system named is SF-295 CNS.
Test [4] has as its system TK-10 renal.
Test [5] deals with SK-MEL-2 melanoma.
Test [6] has as its system A498 renal.
Test [7] deals with NCI-H226 lung.
Test [8] concerns MOLT-4 leukemia.

Take `CCCCCCCCCCCCCCCC1=NCCN1`: the GI50 is 2.06 µM in test [1]; 1.87 µM in test [2]; 1.97 µM in test [3]; 1.84 µM in test [4]; 2.36 µM in test [5]; 2.14 µM in test [6]. Moreover, the GI50 in test [7] is 2.12 µM. The TGI in test [1] was determined as 4 µM; in test [2], 4.45 µM; in test [3], 3.95 µM; in test [4] it was 3.39 µM; in test [5], 4.87 µM; in test [6], 6.14 µM. The TGI in test [7] turned out to be 4.7 µM.
As to `COC(=O)c1ccc2c(c1)C(=O)c1c-2n(CCCCl)c(=O)c2cc([N+](=O)[O-])ccc12`, the GI50 was 76.8 µM in test [2]; 52 µM in test [3]; above 100 µM in test [4]; 26 µM in test [8]; above 100 µM in test [5]; above 100 µM in test [6]. For the same compound, the GI50 in test [7] was above 100 µM. Also, the TGI in test [2], in test [3], in test [4], in test [8], in test [5] and in test [6] was above 100 µM throughout. Also, the TGI in test [7] was above 100 µM.
On to `CC1=C2CC(C)(C)/C=C\C(=O)/C(C)=C\C3=C[C@H](C)C[C@]3(O2)C1=O`, for which the TGI in test [1] came out at 15.5 µM; in test [2], 2.76 µM; in test [3], 22 µM; in test [4] it was 5 µM; in test [8] it was 1.53 µM; in test [5] it was 7.69 µM. Further, the TGI in test [6] amounted to 11.1 µM; in test [7], 8.49 µM.
On to `NC(=NCc1ccccc1)C(N=Nc1ccccc1)C(=O)NCc1ccccc1` (centres undefined), for which the GI50 in test [1] is 3.05 µM; in test [3], 1.9 µM; in test [8], 5.53 µM; in test [6] it was 6.17 µM; in test [7], 21.3 µM. The TGI in test [1] is 10.1 µM; in test [3] it was 5.16 µM; in test [8], above 100 µM; in test [6], 23 µM; in test [7] it was 52.6 µM.
Turning to `COc1cc(Oc2c(C)c(Cl)c(OC)c(Cl)c2OC)c2c(c1Cl)COC2=O`, the TGI in test [1] is above 100 µM; in test [2], above 100 µM; in test [3], above 100 µM; in test [4], above 100 µM; in test [8] it was 69.1 µM; in test [6] it was above 100 µM. The TGI in test [7] was above 100 µM.
With `COC(=O)C1=C(O)[C@H](C(=O)OC)C2(O)C(C(=O)OC)[C@H](c3ccc(OC(=O)C(C)c4ccccc4)cc3)C[C@@H]1[C@@H]2C(=O)OC` (some centres undefined), the GI50 in test [1] was 19.4 µM; in test [3], 16.1 µM; in test [4] it was 48.6 µM; in test [5] it was 31 µM. Also, the TGI in test [1], in test [3], in test [4] and in test [5] was above 50 µM throughout.
As to `COc1ccc2c(c1)c(-c1nc(-c3c[nH]c4ncccc34)cs1)cn2CCCN1CCCCC1`, the GI50 was 1.86 µM in test [1]; 1.81 µM in test [2]; 1.59 µM in test [4]; 1.85 µM in test [5]; 1.82 µM in test [6]. For the same compound, the TGI is 3.53 µM in test [1]; 3.53 µM in test [2]; 3.03 µM in test [4]; 3.72 µM in test [5]; 3.42 µM in test [6].
As to `COc1ccc(/C=C2\CN(C(=O)C(Cl)Cl)C/C(=C\c3ccc(OC)cc3)C2=O)cc1`, the GI50 in test [1] was 2.57 µM; in test [8] it was 1.78 µM; in test [7] it was 2.47 µM. In addition, the results for the TGI in test [1], in test [8] and in test [7] were above 100 µM, above 100 µM and 7.65 µM, respectively.
Regarding `CSC(=NC#N)S/C=C/C(=O)c1ccccc1`, the GI50 in test [1] is 90.6 µM; in test [2], 37.3 µM; in test [3], 30.5 µM; in test [4], 34.5 µM; in test [8], 22.6 µM; in test [5] it was 70.6 µM. For the same compound, the GI50 in test [6] is 61 µM. The TGI in test [1], in test [2], in test [3], in test [4], in test [8] and in test [5] was above 100 µM throughout. In test [6], this compound came in with a TGI above 100 µM.
In the case of `O=C1C(Cl)=C(Nc2ccc(Nc3ccccc3)c(NC3=C(Cl)C(=O)c4ccccc4C3=O)c2)C(=O)c2ccccc21`, the GI50 in test [1] was 8.25 µM; in test [2], 16.1 µM; in test [3] it was 3.79 µM; in test [4], 2.62 µM; in test [6], 0.875 µM; in test [7], 16.7 µM. Also, the TGI was above 100 µM in test [1]; above 100 µM in test [2]; 19.9 µM in test [3]; 4.5 µM in test [4]; 14.4 µM in test [6]; 35.6 µM in test [7].
In the case of `CC1CCN(Cc2ccc(NC(=O)c3cc4ccc5cccnc5c4[nH]3)cc2)CC1`, the GI50 in test [2] was 3 µM; in test [3] it was 1.98 µM; in test [4], 8.56 µM; in test [8], 3 µM; in test [5], 2.45 µM; in test [6], 2.42 µM. For the same compound, the GI50 in test [7] was 23.5 µM. In addition, the TGI in test [2] is 14.5 µM; in test [3] it was 4.45 µM; in test [4] it was 23.2 µM; in test [8] it was 9.85 µM; in test [5] it was 6.2 µM; in test [6], 12.9 µM. Further, the TGI in test [7] worked out at 73.4 µM.
Take `COc1cc(C2CC(c3cccc(Nc4ccnc5cc(Cl)ccc45)c3)=NN2c2ccc(Cl)cc2)cc(OC)c1OC` (centres undefined): the GI50 in test [1] is 2.72 µM; in test [3] it was 1.71 µM; in test [4], 3.27 µM; in test [8], 3.68 µM; in test [5], 4.65 µM; in test [6], 4.65 µM. In addition, the GI50 in test [7] is 8.45 µM. Also, the TGI in test [1] is above 100 µM; in test [3], 33.8 µM; in test [4], 19.1 µM; in test [8], above 100 µM; in test [5] it was 35.3 µM; in test [6], 91.5 µM. Besides, the TGI in test [7] is above 100 µM.
Turning to `O=c1c2ccc(S(=O)(=O)c3ccc4c(=O)n5c6ccccc6nc5c5cccc3c45)c3cccc(c32)c2nc3ccccc3n12`, the TGI in test [1] was above 100 µM; in test [2], above 100 µM; in test [3], 53.2 µM; in test [4], 50.3 µM; in test [5], 65.6 µM; in test [7] it was above 100 µM.
`Nc1c(C(=O)Nc2ccccc2)sc2nc3c(cc12)CCCCC3`: the GI50 is 0.696 µM in test [1]; 0.366 µM in test [3]; 2.39 µM in test [4]; 2.67 µM in test [8]; 1.72 µM in test [5]; 0.307 µM in test [6]. Besides, the GI50 in test [7] was 1.49 µM. Moreover, the TGI was above 100 µM in test [1]; 4.04 µM in test [3]; 30.3 µM in test [4]; above 100 µM in test [8]; 20.4 µM in test [5]; 4.74 µM in test [6]. Further, in test [7], the TGI turned out to be 24.7 µM.
Consider `Oc1ccc(O)c(-c2cn3c(n2)SCC3)c1`, for which the GI50 in test [1] is 47.5 µM; in test [3], 14.8 µM; in test [4] it was 21.3 µM; in test [8], 4.37 µM; in test [5], 78.8 µM; in test [6], 20.9 µM. The GI50 in test [7] is 6.85 µM. In addition, the TGI in test [1] was above 100 µM; in test [3], 38.7 µM; in test [4] it was 37.3 µM; in test [8] it was 9.55 µM; in test [5], above 100 µM; in test [6] it was 75.7 µM. Also, the TGI in test [7] is 28.6 µM.
For `N#CC(C(=O)C(=O)Nc1ccccc1)c1ccccc1` (centres undefined), the TGI in test [1], in test [2], in test [3], in test [4], in test [8] and in test [5] was above 100 µM throughout. In addition, the TGI in test [7] was above 100 µM.
In the case of `C=C(CO)CC(O)c1cc(OC)ccc1OC` (centres undefined), the TGI in test [1], in test [2], in test [3], in test [4], in test [8] and in test [5] was above 100 µM each time. For the same compound, in test [7], the TGI was above 100 µM.
In the case of `C[C@@]1(C(=O)O)CCC[C@]2(C)C1CC[C@@]13C[C@@](O)(CC[C@]12O)[C@@]1(CO1)C3` (some centres undefined), the GI50 in test [1], in test [2], in test [3], in test [4], in test [5] and in test [6] was above 100 µM each time. In addition, in test [7], the GI50 is above 100 µM. The TGI in test [1], in test [2], in test [3], in test [4], in test [5] and in test [6] was above 100 µM in each case. The compound further registered a TGI in test [7] above 100 µM.
Turning to `O=c1[nH]c2ccccc2c2nc3ccccc3n12`, the TGI in test [1], in test [2], in test [3], in test [4], in test [8] and in test [6] was above 100 µM throughout.
In the case of `CC(=O)/C(=C/c1ccccc1)C(=O)CC(C)C`, the GI50 in test [1] is 26.5 µM; in test [2], 3.8 µM; in test [4], 23.9 µM; in test [8], 3.59 µM; in test [5], 24.5 µM; in test [6], 19.4 µM. Further, the GI50 in test [7] was 25.1 µM. Besides, the TGI was determined as 73.8 µM in test [1]; 12.8 µM in test [2]; 50.5 µM in test [4]; 79.4 µM in test [8]; 60.7 µM in test [5]; 38.8 µM in test [6]. Also, the TGI in test [7] stood at 71.4 µM.
On to `COc1cccc(/C=C/C(=O)c2ccc(SC)cc2)c1OC`, for which the GI50 in test [1] is 12.1 µM; in test [2], 9.97 µM; in test [4], 22.5 µM; in test [8] it was 8.11 µM; in test [5] it was 23.3 µM; in test [6] it was 11.3 µM. For the same compound, the TGI in test [1] was found to be 25.5 µM; in test [2], 48.8 µM; in test [4], 49.5 µM; in test [8] it was 61.6 µM; in test [5] it was 40.7 µM; in test [6], 23.8 µM.
Consider `O=S(=O)(CCN1CCOCC1)Nc1cc(-c2ccc3ncnc(Nc4ccc(F)c(Cl)c4)c3c2)cnc1Cl`, for which the GI50 in test [1] was 1.62 µM; in test [2], 0.674 µM; in test [3] it was 0.624 µM; in test [7] it was 0.584 µM. The TGI turned out to be 6.29 µM in test [1], 17.7 µM in test [2], 4.29 µM in test [3] and 26.4 µM in test [7].
In the case of `Cc1c(O)c(N=Nc2nc3ccccc3s2)c2ccccc2c1O`, the GI50 in test [1] is 19.8 µM; in test [3] it was 24.7 µM; in test [4], above 50 µM; in test [8], above 50 µM; in test [5], 17.3 µM. Besides, the TGI in test [1] was above 50 µM; in test [3], above 50 µM; in test [4], above 50 µM; in test [8], above 50 µM; in test [5], 43.2 µM.
As to `N.N.N.N.N.NC(=O)[O-].[Co+3].[I-]`, the GI50 in test [1], in test [2], in test [3], in test [4], in test [8] and in test [5] was above 100 µM each time. For the same compound, in test [6], the GI50 is above 100 µM. For the same compound, the TGI in test [1], in test [2], in test [3], in test [4], in test [8] and in test [5] was above 100 µM throughout. In test [6], this compound returned a TGI above 100 µM.
`CC(C)N1CCN(c2ccncc2S(=O)(=O)N2CCCCC2)CC1`: the TGI in test [1], in test [2], in test [3], in test [4], in test [5] and in test [6] was above 100 µM each time. The TGI in test [7] was above 100 µM.
